{"source": "patent US10662187B2", "about": "“Bruton's tyrosine kinase inhibitors” (Zibo Biopolar Changsheng Pharmaceutical Co. Ltd., priority 2016, dated 2020)", "biological_target": "BTK (Homo sapiens (Human), UniProt Q06187)", "sequence (Q06187 whole entry, species assumed)": "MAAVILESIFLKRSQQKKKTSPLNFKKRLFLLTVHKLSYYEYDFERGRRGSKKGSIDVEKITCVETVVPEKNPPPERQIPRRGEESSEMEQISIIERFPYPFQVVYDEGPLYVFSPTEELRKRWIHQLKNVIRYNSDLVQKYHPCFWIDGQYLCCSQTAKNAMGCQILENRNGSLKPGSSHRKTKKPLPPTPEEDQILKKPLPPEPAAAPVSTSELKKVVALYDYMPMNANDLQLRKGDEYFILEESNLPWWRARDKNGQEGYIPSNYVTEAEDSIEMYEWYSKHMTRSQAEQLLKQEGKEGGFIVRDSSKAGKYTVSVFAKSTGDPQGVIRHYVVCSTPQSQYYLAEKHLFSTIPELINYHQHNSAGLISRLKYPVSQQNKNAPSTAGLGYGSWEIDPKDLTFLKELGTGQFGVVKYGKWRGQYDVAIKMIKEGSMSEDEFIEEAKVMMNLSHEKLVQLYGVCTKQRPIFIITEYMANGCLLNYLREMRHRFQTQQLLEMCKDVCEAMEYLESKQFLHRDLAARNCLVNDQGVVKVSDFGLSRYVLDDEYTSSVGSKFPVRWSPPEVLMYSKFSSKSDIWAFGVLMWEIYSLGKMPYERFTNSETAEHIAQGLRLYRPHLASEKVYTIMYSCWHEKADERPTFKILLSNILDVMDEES", "test": "Btk kinase assay (HTRF)", "format": "biochemical", "experimental": "Btk Kinase Assay and Other Kinases Assay Btk kinase activity was determined using a homogenous time resolved fluorescence (HTRF) methodology. Measurements were performed in a reaction volume of 15 μL using 384-well assay plates. Kinase enzyme, inhibitor, ATP and 1 μM peptide substrate were incubated in a reaction buffer compose of Hepes 50 mM (pH7.0), NaN3 0.02%, BSA 0.01%, Orthocanadate 0.1 mM. […] For each compound, enzyme activity as measured at various concentrations of compound, Negative control reactions were performed in the absence of inhibitor in two replicates and eight no enzyme controls were used to determine baseline fluorescence levels.", "key": {"[1]": {"details": "[ATP]=80 μM, BTK=3.4 nM, read-out: BTK Inhibition"}}, "note": "Where two headings read alike, the source gives them in different places."}
{"molecule": "C=CC(=O)N1CCC[C@@H](n2nc(-c3ccc(COc4ccccc4)cc3)c3ccccc32)C1", "note": "[Compound 102, (R)-1-(3-(3-(4-(phenoxymethyl)phenyl)-1H-indazol-1-yl)piperidin-1-yl)prop-2-en-1-one]", "values": [{"measurement": "IC50", "value": "10 to 100", "unit": "nM"}]}
{"molecule": "C=CC(=O)N1CCC[C@H](n2nc(-c3ccc(Oc4cccc(C)c4)cc3)c3cnccc32)C1", "note": "[Compound 37, (S)-1-(3-(3-(4-(m-tolyloxy)phenyl)-1H-pyrazolo[4,3-c]pyridin-1-yl)piperidin-1-yl)prop-2-en-1-one]", "values": [{"measurement": "IC50", "setting": "[1]", "value": "10 to 100", "unit": "nM"}]}
{"molecule": "C=CC(=O)N1CCC[C@@H](n2nc(-c3ccc(OC4CCCCC4)cc3)c3cnccc32)C1", "note": "[Compound 29, (R)-1-(3-(3-(4-(cyclohexyloxy)phenyl)-1H-pyrazolo[4,3-c]pyridin-1-yl)piperidin-1-yl)prop-2-en-1-one]", "values": [{"measurement": "IC50", "setting": "[1]", "value": "10 to 100", "unit": "nM"}]}
{"molecule": "C=CC(=O)N1CC2(CC(n3nc(-c4ccc(Oc5cccc(OC)c5Cl)cc4)c4cnccc43)C2)C1", "note": "[Compound 30, 1-(6-(3-(4-(2-chloro-3-methoxyphenoxy)phenyl)-1H-pyrazolo[4,3-c]pyridin-1-yl)-2-azaspiro[3.3]heptan-2-yl)prop-2-en-1-one]", "values": [{"measurement": "IC50", "setting": "[1]", "value": "100 to 1000", "unit": "nM"}]}
{"molecule": "C=CC(=O)N1CC[C@H](n2nc(-c3ccc(Oc4cccc(Cl)c4Cl)cc3)c3cnccc32)C1", "note": "[Compound 42, (S)-1-(3-(3-(4-(2,3-dichlorophenoxy)phenyl)-1H-pyrazolo[4,3-c]pyridin-1-yl)pyrrolidin-1-yl)prop-2-en-1-one]", "values": [{"measurement": "IC50", "setting": "[1]", "value": "< 10", "unit": "nM"}]}
{"molecule": "C=CC(=O)N1CCC[C@@H](n2nc(-c3ccc(Oc4cccc(OC)c4F)cc3)c3cncc(OC(C)C)c32)C1", "note": "[Compound 96, (R)-1-(3-(3-(4-(2-fluoro-3-methoxyphenoxy)phenyl)-7-isopropoxy-1H-pyrazolo[4,3-c]pyridin-1-yl)piperidin-1-yl)prop-2-en-1-one]", "values": [{"measurement": "IC50", "setting": "[1]", "value": "10 to 100", "unit": "nM"}]}
{"molecule": "C=CC(=O)N1CCC(n2nc(-c3ccc(NC(=O)c4cccc(C(F)(F)F)c4)cc3)c3cnccc32)C1", "note": "(stereo not shown) [Compound 116, N-{4-[1-(1-Acryloyl-pyrrolidin-3-yl)-1H-pyrazolo[4,3-c]pyridin-3-yl]-phenyl}-3-trifluoromethyl-benzamide]", "values": [{"measurement": "IC50", "setting": "[1]", "value": "10 to 100", "unit": "nM"}]}
{"molecule": "C=CC(=O)N1CC[C@@H](n2nc(-c3ccc(C(=O)NCc4cccc(OC)c4)cc3)c3cnccc32)C1", "note": "[Compound 103, (R)-4-(1-(1-acryloylpyrrolidin-3-yl)-1H-pyrazolo[4,3-c]pyridin-3-yl)-N-(3-methoxybenzyl)benzamide]", "values": [{"measurement": "IC50", "setting": "[1]", "value": "100 to 1000", "unit": "nM"}]}
{"molecule": "C=CC(=O)N1CCC[C@@H](n2nc(-c3ccc(Oc4cccc(OC)c4F)cc3)c3cncc(OCCN)c32)C1", "note": "[Compound 87, (R)-1-(3-(7-(2-aminoethoxy)-3-(4-(2-fluoro-3-methoxyphenoxy)phenyl)-1H-pyrazolo[4,3-c]pyridin-1-yl)piperidin-1-yl)prop-2-en-1-one]", "values": [{"measurement": "IC50", "setting": "[1]", "value": "10 to 100", "unit": "nM"}]}
{"molecule": "C=CC(=O)N1CC[C@@H](n2nc(-c3ccc(Oc4cccc(OC)c4F)cc3)c3cncc(C#N)c32)C1", "note": "[Compound 28, (R)-1-(1-acryloylpyrrolidin-3-yl)-3-(4-(2-fluoro-3-methoxyphenoxy)phenyl)-1H-pyrazolo[4,3-c]pyridine-7-carbonitrile]", "values": [{"measurement": "IC50", "setting": "[1]", "value": "< 10", "unit": "nM"}]}
{"molecule": "C=CC(=O)N1CC[C@@H](n2nc(-c3ccc(Oc4cccc(OC)c4F)cc3)c3c2CCN(C(C)=O)C3)C1", "note": "[Compound 45, (R)-1-(3-(5-acetyl-3-(4-(2-fluoro-3-methoxyphenoxy)phenyl)-4,5,6,7-tetrahydro-1H-pyrazolo[4,3-c]pyridin-1-yl)pyrrolidin-1-yl)prop-2-en-1-one]", "values": [{"measurement": "IC50", "setting": "[1]", "value": "1000 to 10000", "unit": "nM"}]}
{"molecule": "C=CC(=O)N1CC[C@@H](n2nc(-c3ccc(Oc4cccc(OC)c4F)cc3)c3cncc(C(F)F)c32)C1", "note": "[Compound 67, (R)-1-(3-(7-(difluoromethyl)-3-(4-(2-fluoro-3-melhoxyphenoxy)phenyl)-1H-pyrazolo[4,3-c]pyridin-1-yl)pyrrolidin-1-yl)prop-2-en-1-one]", "values": [{"measurement": "IC50", "setting": "[1]", "value": "< 10", "unit": "nM"}]}
{"molecule": "CC#CC(=O)N1CCC[C@@H](n2nc(-c3ccc(Oc4cccc(OC)c4Cl)cc3)c3cnccc32)C1", "note": "[Compound 25, (R)-1-(3-(3-(4-(2-chloro-3-methoxyphenoxy)phenyl)-1H-pyrazolo[4,3-c]pyridin-1-yl)piperidin-1-yl)but-2-yn-1-one]", "values": [{"measurement": "IC50", "setting": "[1]", "value": "100 to 1000", "unit": "nM"}]}
{"molecule": "C=CC(=O)N1CCC[C@@H](n2nc(-c3ccc(Oc4cccc(OC)c4F)cc3)c3cncc(O)c32)C1", "note": "[Compound 82, (R)-1-(3-(3-(4-(2-fluoro-3-methoxyphenoxy)phenyl)-7-hydroxy-1H-pyrazolo[4,3-c]pyridin-1-yl)piperidin-1-yl)prop-2-en-1-one]", "values": [{"measurement": "IC50", "setting": "[1]", "value": "< 10", "unit": "nM"}]}
{"molecule": "C=CC(=O)N1CC[C@@H](n2nc(-c3ccc(Oc4cccc(OC)c4Cl)cc3)c3cnccc32)C1", "note": "[Compound 13, (R)-1-(3-(3-(4-(2-chloro-3-methoxyphenoxy)phenyl)-1H-pyrazolo[4,3-c]pyridin-1-yl)pyrrolidin-1-yl)prop-2-en-1-one]", "values": [{"measurement": "IC50", "setting": "[1]", "value": "< 10", "unit": "nM"}]}
{"molecule": "O=C(O)C1CCC(n2nc(-c3ccc(-c4ccccc4)cc3)c3cnccc32)CC1", "note": "(stereo not shown) [Compound 124, 4-(3-([1,1′-biphenyl]-4-yl)-1H-pyrazolo[4,3-c]pyridin-1-yl)cyclohexanecarboxylic acid]", "values": [{"measurement": "IC50", "setting": "[1]", "value": "> 10000", "unit": "nM"}]}
{"molecule": "C=CC(=O)N1CCC(Cn2nc(-c3ccc(Oc4ccccc4)cc3)c3cnccc32)C1", "note": "(stereo not shown) [Compound 21, 1-(3-((3-(4-phenoxyphenyl)-1H-pyrazolo[4,3-c]pyridin-1-yl)methyl)pyrrolidin-1-yl)prop-2-en-1-one]", "values": [{"measurement": "IC50", "setting": "[1]", "value": "10 to 100", "unit": "nM"}]}
{"molecule": "C=CC(=O)N1CCC[C@@H](n2nc(-c3ccc(Oc4ccccc4)cc3)c3cnccc32)C1", "note": "[Compound 33, (R)-1-(3-(3-(4-phenoxyphenyl)-1H-pyrazolo[4,3-c]pyridin-1-yl)piperidin-1-yl)prop-2-en-1-one]", "values": [{"measurement": "IC50", "setting": "[1]", "value": "< 10", "unit": "nM"}]}
{"molecule": "C=CC(=O)Nc1cccc(-n2nc(-c3ccc(Oc4ccccc4)cc3)c3cnccc32)c1", "note": "[Compound 22, N-(3-(3-(4-phenoxyphenyl)-1H-pyrazolo[4,3-c]pyridin-1-yl)phenyl)acrylamide]", "values": [{"measurement": "IC50", "setting": "[1]", "value": "10 to 100", "unit": "nM"}]}
{"molecule": "C=CC(=O)N1CC[C@@H](n2nc(-c3ccc(Oc4cccc(OC)c4Cl)cc3)c3cncc(F)c32)C1", "note": "[Compound 68, (R)-1-(3-(3-(4-(2-chloro-3-methoxyphenoxy)phenyl)-7-fluoro-1H-pyrazolo [4,3-c]pyridin-1-yl)pyrrolidin-1-yl)prop-2-en-1-one]", "values": [{"measurement": "IC50", "setting": "[1]", "value": "< 10", "unit": "nM"}]}
{"molecule": "C=CC(=O)N1CCC[C@@H](n2nc(-c3ccc(Oc4cccc(Cl)c4C)cc3)c3cnccc32)C1", "note": "[Compound 56, (R)-1-(3-(3-(4-(3-chloro-2-methylphenoxy)phenyl)-1H-pyrazolo[4,3-c]pyridin-1-yl)piperidin-1-yl)prop-2-en-1-one]", "values": [{"measurement": "IC50", "setting": "[1]", "value": "10 to 100", "unit": "nM"}]}
{"molecule": "C=CC(=O)N1CCC[C@H](n2nc(-c3ccc(C(=C)c4ccccc4)cc3)c3cnccc32)C1", "note": "[Compound 95, (S)-1-(3-(3-(4-(1-phenylvinyl)phenyl)-1H-pyrazolo [4,3-c]pyridin-1-yl)piperidin-1-yl)prop-2-en-1-one]", "values": [{"measurement": "IC50", "setting": "[1]", "value": "10 to 100", "unit": "nM"}]}
{"molecule": "COc1cccc(Oc2ccc(-c3nn([C@@H]4CCCN(C(=O)/C(C#N)=C/C(C)(C)C)C4)c4c(OC)cncc34)cc2)c1F", "note": "[Compound 90, (R,E)-2-(3-(3-(4-(2-fluoro-3-methoxyphenoxy)phenyl)-7-methoxy-1H-pyrazolo[4,3-c]pyridin-1-yl)piperidine-1-carbonyl)-4,4-dimethylpent-2-enenitrile]", "values": [{"measurement": "IC50", "setting": "[1]", "value": "10 to 100", "unit": "nM"}]}
{"molecule": "C=CC(=O)N1CCC[C@@H](n2nc(-c3ccc(Oc4cccc(OC(C)C)c4)cc3)c3cnccc32)C1", "note": "[Compound 23, (R)-1-(3-(3-(4-(3-isopropoxyphenoxy)phenyl)-1H-pyrazolo[4,3-c]pyridin-1-yl)piperidin-1-yl)prop-2-en-1-one]", "values": [{"measurement": "IC50", "setting": "[1]", "value": "10 to 100", "unit": "nM"}]}
{"molecule": "C=CC(=O)N1CC[C@@H](n2nc(-c3ccc(Oc4cccc(C)c4C)cc3)c3cnccc32)C1", "note": "[Compound 12, (R)-1-(3-(3-(4-(2,3-dimethylphenoxy)phenyl)-1H-pyrazolo[4,3-c]pyridin-1-yl)pyrrolidin-1-yl)prop-2-en-1-one]", "values": [{"measurement": "IC50", "setting": "[1]", "value": "10 to 100", "unit": "nM"}]}
{"molecule": "C=CC(=O)N1CCC[C@H](n2nc(-c3ccc(Oc4ccccc4)c(Cl)c3)c3cnccc32)C1", "note": "[Compound 35, (S)-1-(3-(3-(3-chloro-4-phenoxyphenyl)-1H-pyrazolo[4,3-c]pyridin-1-yl)piperidin-1-yl)prop-2-en-1-one]", "values": [{"measurement": "IC50", "setting": "[1]", "value": "10 to 100", "unit": "nM"}]}
{"molecule": "C=CC(=O)N1CCC[C@@H](n2nc(-c3ccc(OCc4ccccc4F)cc3)c3cnccc32)C1", "note": "[Compound 101, (R)-1-(3-(3-(4-((2-fluorobenzyl)oxy)phenyl)-1H-pyrazolo[4,3-c]pyridin-1-yl)piperidin-1-yl)prop-2-en-1-one]", "values": [{"measurement": "IC50", "setting": "[1]", "value": "10 to 100", "unit": "nM"}]}
{"molecule": "C=CC(=O)N1CC2(CC(n3nc(-c4ccc(Oc5cccc(OC)c5F)cc4)c4cnccc43)C2)C1", "note": "[Compound 26, 1-(6-(3-(4-(2-fluoro-3-methoxyphenoxy)phenyl)-1H-pyrazolo[4,3-c]pyridin-1-yl)-2-azaspiro[3.3]heptan-2-yl)prop-2-en-1-one]", "values": [{"measurement": "IC50", "setting": "[1]", "value": "< 10", "unit": "nM"}]}
{"molecule": "C=CC(=O)N1CCC[C@@H](n2nc(-c3ccc(C(=O)NCc4cccc(OC)c4)cc3)c3cnccc32)C1", "note": "[Compound 104, (R)-4-(1-(1-acryloylpiperidin-3-yl)-1H-pyrazolo[4,3-c]pyridin-3-yl)-N-(3-methoxybenzyl)benzamide]", "values": [{"measurement": "IC50", "setting": "[1]", "value": "100 to 1000", "unit": "nM"}]}
{"molecule": "C=CC(=O)N1CC[C@@H](n2nc(-c3ccc(Oc4cccc(OC)c4C)cc3)c3cnccc32)C1", "note": "[Compound 59, (R)-1-(3-(3-(4-(3-methoxy-2-methylphenoxy)phenyl)-1H-pyrazolo[4,3-c]pyridin-1-yl)pyrrolidin-1-yl)prop-2-en-1-one]", "values": [{"measurement": "IC50", "setting": "[1]", "value": "10 to 100", "unit": "nM"}]}
{"molecule": "C=CC(=O)N1CC[C@@H](n2nc(-c3ccc(-c4cccc(C)c4)cc3)c3cnccc32)C1", "note": "[Compound 107, (R)-1-(3-(3-(3′-methyl-[1,1′-biphenyl]-4-yl)-1H-pyrazolo[4,3-c]pyridin-1-yl)pyrrolidin-1-yl)prop-2-en-1-one]", "values": [{"measurement": "IC50", "setting": "[1]", "value": "10 to 100", "unit": "nM"}]}
